From publication PMC6270326, “The Novel [4,5-e][1,3]Diazepine-4,8-dione and Acyclic Carbamoyl Imino-Ureido Derivatives of Imidazole: Synthesis, Anti-Viral and Anti-Tumor Activity Evaluations” (Molecules, 2013)

Legend:
[1] = tested on: HepG2 (hepatocellular carcinoma); test: Proliferation assay (MTT), HepG2; format: cell-based; settings: Homo sapiens, 72 h incubation, read-out: Tumor cell growth IC50, HepG2
Protocol: (§1) The cell lines HeLa (cervical carcinoma), SW620 (colorectal adenocarcinoma, metastatic), MCF-7 (breast epithelial adenocarcinoma, metastatic), HepG2 (hepatocellular carcinoma) and BJ (normal diploid human fibroblasts), were cultured as monolayers and maintained in Dulbecco’s modified Eagle medium (DMEM) supplemented with 10% fetal bovine serum (FBS), 2 mM L-glutamine, 100 U/mL penicillin and 100 μg/mL streptomycin in a humidified atmosphere with 5% CO2 at 37 °C.
(§2) The panel cell lines were inoculated onto a series of standard 96-well microtiter plates on day 0, at 3,000 to 5,000 cells per well according to the doubling times of specific cell line. Test agents were then added in 10-fold dilutions (0,01 to 100 µM) and incubated for further 72 h. Working dilutions were freshly prepared on the day of testing in the growth medium. The solvent (DMSO) was also tested for eventual inhibitory activity by adjusting its concentration to be the same as in the working concentrations (DMSO concentration never exceeded 0.1%). After 72 h of incubation, the cell growth rate was evaluated by performing the MTT assay: experimentally determined absorbance values were transformed into a cell percentage growth (PG) using the formulas proposed by NIH and described previously. This method directly relies on control of untreated cells at the day of substances addition because it compares the growth of treated cells with the growth of untreated cells in control wells on the same plate—the results are therefore a percentile difference from the calculated expected value. […] If, however, all of the tested concentrations produce PGs exceeding the respective reference level of effect (e.g., PG value of 50) for a given cell line, the highest tested concentration is assigned as the default value (in the screening data report that default value is preceded by a “>” sign). Each test point was performed in quadruplicate in three individual experiments. The results were statistically analyzed (ANOVA, Tukey post-hoc test at p < 0.05). Finally, the effects of the tested substances were evaluated by plotting the mean percentage growth for each cell type in comparison to control on dose response graphs.

[2] = tested on: BJ (normal diploid human fibroblasts); test: Proliferation assay (MTT), BJ normal fibroblasts; format: cell-based; settings: for Cytotoxicity on human normal fibroblasts (BJ): in words; for IC50: Fibroblast, BJ normal human skin fibroblasts, 72 h incubation, MTT, read-out: Cell growth IC50, BJ
Protocol: as §1, §2

[3] = tested on: MCF-7 (breast epithelial adenocarcinoma, metastatic); test: Proliferation assay (MTT), MCF-7; format: cell-based; settings: Homo sapiens, MCF7, 72 h incubation, read-out: Tumor cell growth IC50, MCF-7
Protocol: as §1, §2

[4] = tested on: SW620 (colorectal adenocarcinoma, metastatic); test: Proliferation assay (MTT), SW620; format: cell-based; settings: Homo sapiens, SW-620, 72 h incubation, read-out: Tumor cell growth IC50, SW620
Protocol: as §1, §2

[5] = tested on: HeLa (cervical carcinoma); test: Proliferation assay (MTT), HeLa; format: cell-based; settings: Homo sapiens, 72 h incubation, read-out: Tumor cell growth IC50, HeLa
Protocol: as §1, §2

[6] = tested on: HeLa, SW620, MCF-7, HepG2 and BJ cell lines; test: Proliferation assay (MTT), whole panel of cell lines; format: cell-based, human; settings: in words
Protocol: as §1
The panel cell lines were inoculated onto a series of standard 96-well microtiter plates on day 0, at 3,000 to 5,000 cells per well according to the doubling times of specific cell line. Test agents were then added in 10-fold dilutions (0,01 to 100 µM) and incubated for further 72 h. […] After 72 h of incubation, the cell growth rate was evaluated by performing the MTT assay: experimentally determined absorbance values were transformed into a cell percentage growth (PG) using the formulas proposed by NIH and described previously. This method directly relies on control of untreated cells at the day of substances addition because it compares the growth of treated cells with the growth of untreated cells in control wells on the same plate—the results are therefore a percentile difference from the calculated expected value. […] The results were statistically analyzed (ANOVA, Tukey post-hoc test at p < 0.05). […]

| SMILES | IC50 [1] [µM] | Cytotoxicity on human normal fibroblasts (BJ) [2] | IC50 [2] [µM] | IC50 [3] [µM] | melting point [°C] | IC50 [4] [µM] | IC50 [5] [µM] | Antiproliferative effect on tested cell lines [6] |
| --- | --- | --- | --- | --- | --- | --- | --- | --- |
| NC(=O)c1ncn(CCN2CCOCC2)c1C(N)=O [Compound 5, 1-(2-Morpholin-4-yl-ethyl)-1H-imidazole-4,5-dicarboxylic acid diamide] | > 100 | no concomitant cytotoxic effects | > 100 | > 100 | 196 to 197 | > 100 | 32 | – |
| COC(=O)c1ncn(CCN2CCCCC2)c1C(=O)OC [Compound 2, 1-(2-Piperidin-1-yl-ethyl)-1H-imidazole-4,5-dicarboxylic acid dimethyl ester] | > 100 | – | > 100 | > 100 | – | > 100 | > 100 | – |
| COC(=O)c1ncn(CCCN(C)C)c1C(=O)OC [Compound 4, 1-(3-Dimethylamino-propyl)-1H-imidazole-4,5-dicarboxylic acid dimethyl ester] | > 100 | – | > 100 | > 100 | – | > 100 | > 100 | – |
| N=c1[nH]c(=O)c2ncn(CCN3CCOCC3)c2c(=O)[nH]1 [Compound 9, 6-Imino-1-(2-morpholin-4-yl-ethyl)-6,7-dihydro-1H,5H-1,3,5,7-tetraaza-azulene-4,8-dione] | > 100 | – | > 100 | > 100 | > 300 | > 100 | > 100 | – |
| COC(=O)c1ncn(CCN2CCOCC2)c1C(=O)NC(=N)NC(=O)Nc1ccccc1F [Compound 12, 5-({[3-(2-Fluoro-phenyl)-ureido]-imino-methyl}-carbamoyl)-1-(2-morpholin-4-yl-ethyl)-1H-imidazole-4-carboxylic acid methyl ester] | > 100 | – | > 100 | > 100 | > 164 | > 100 | > 100 | – |
| CN(C)CCCn1cnc(C(N)=O)c1C(N)=O [Compound 8, 1-(3-Dimethylamino-propyl)-1H-imidazole-4,5-dicarboxylic acid diamide] | > 100 | – | > 100 | > 100 | 205 to 210 | > 100 | > 100 | – |
| COC(=O)c1ncn(CCN2CCOCC2)c1C(=O)OC [Compound 1, 1-(2-Morpholin-4-yl-ethyl)-1H-imidazole-4,5-dicarboxylic acid dimethyl ester] | > 100 | no concomitant cytotoxic effects | > 100 | > 100 | – | > 100 | 24 | – |
| NC(=O)c1ncn(CCN2CCCCC2)c1C(N)=O [Compound 6, 1-(2-Piperidin-1-il-etil)-1H-imidazol-4,5-diamide] | > 100 | – | > 100 | > 100 | 200 to 201 | > 100 | > 100 | – |
| N=c1[nH]c(=O)c2ncn(CCN3CCCCC3)c2c(=O)[nH]1 [Compound 10, 6-Imino-1-(2-piperidin-1-yl-ethyl)-6,7-dihydro-1H,5H-1,3,5,7-tetraaza-azulene-4,8-dione] | 41 | – | > 100 | > 100 | > 300 | 31 | 31 | moderate non-selective antiproliferative activity |
| COC(=O)c1ncn(CCN2CCCC2)c1C(=O)OC [Compound 3, 1-(2-Pyrrolidin-1-yl-ethyl)-1H-imidazole-4,5-dicarboxylic acid dimethyl ester] | > 100 | no apparent cytotoxicity | > 100 | > 100 | – | > 100 | 9.5 | – |
| N=c1[nH]c(=O)c2ncn(CCN3CCCC3)c2c(=O)[nH]1 [Compound 11, 6-Imino-1-(2-pyrrolidin-1-yl-ethyl)-6,7-dihydro-1H,5H-1,3,5,7-tetraaza-azulene-4,8-dione] | > 100 | – | > 100 | > 100 | – | 20 | > 100 | – |
